According to US7538220B2, “Intermediates in the preparation of homocamptothecin analogs” (University of Pittsburgh - of the Commonwealth System of …, priority 1999, dated 2009):

Legend:
[1] = system: MDA-MB-435 tumorigenic metastatic human breast cancer cells; experiment: Cytotoxicity, sulphorrhodamine B (SRB) assay; type: cell-based; conditions: MDA-MB-435, 72 h, read-out: IC50 (w/o HSA)
Experimental: Cytotoxicity measurements were conducted using MDA-MB-435 tumorigenic human breast cancer cells. The cells were exposed to a range of drug concentrations for 72 hr exposure periods and then viability was assessed using a sulphorrhodamine B (SRB) assay. The SRB measures the total protein levels in the living cells. Proteins from dead cells are lysed and removed in the washing step before TCA fixation. However, it is possible that cells in the early stage of death still have their membrane integrity and therefore retain the protein contents inside. As a result, the optical density at 490 nm can sometimes be overestimated and the cytotoxicity underestimated. […] The SRB assay is now a well regarded assay and was recently approved by NCl as a standard assay for anticancer drug screening. […] Each IC50 value represents the average of three separate trials with each dosage level studied in triplicate.

[2] = Lactone ring stability in PBS suspensions of albumin-free red blood cells by HPLC; type: in vitro ADME, human; conditions: albumin-free RBC in PBS (5±1)×10^6 cell/μL, 37° C.
Experimental: FIG. 15 depicts the stabilities of four novel homosilatecans of the current invention in PBS suspensions containing physiologically-relevant concentrations [(5±1)×10^6 cell/μL] of albumin-free red blood cells. Stability characteristics were determined at 37° C. using HPLC methods.
HPLC solvents were from Fisher Scientific.
To study the stabilities of the novel homosilatecans in the presence of physiologically relevant concentrations of red blood cells (RBC), the following experiments were performed. Packed Red blood cells obtained from the Central Kentucky Red Cross and were counted using a Coulter Cell Counter. The number of cells was adjusted to 5×10^12 Cells/L using PBS, pH 7.4 and incubated at 37° C. for 30 min. […] RBCs were incubated at 37° C. for 30 min and the pH remeasured to ensure that it was within the same range as before the assays were started. […] Aliquots of drug in DMSO were added to RBC suspensions in PBS to result in final drug concentration of 1 μM. […] The sample was analyzed on HPLC as soon as possible.

Row | Structure (SMILES) | IC50 [1] [µM] | % Lactone ([2]; 3 hours) [%] | % Lactone ([2]; 24 hours) [%]
1 | CCC1(O)CC(=O)OCc2c1cc1n(c2=O)Cc2c-1nc1ccc(N)cc1c2[Si](C)(C)C(C)(C)C (racemic) [DB-90, 5-Ethyl-1,4,5,13-tetrahydro-5-hydroxy-10-amino-12-tert-butyldimethylsilyl-3H,15H-oxepino[3′,4′:6,7]indolizino[1,2-b]quinoline-3,15-dione] | 0.073 ± 0.008 | 85.5 ± 0.4 | 38.5 ± 1.4
2 | CCC1(O)CC(=O)OCc2c1cc1n(c2=O)Cc2c-1nc1ccccc1c2[Si](C)(C)C(C)(C)C (racemic) [DB-81, 5-Ethyl-1,4,5,13-tetrahydro-5-hydroxy-12-tert-butyldimethylsilyl-3H,15H-oxepino[3′,4′:6,7]indolizino[1,2-b]quinoline-3,15-dione] | 0.077 ± 0.013 | 92.0 ± 0.0 | 55.8 ± 1.7
3 | CCC1(O)CC(=O)OCc2c1cc1n(c2=O)Cc2c-1nc1ccc(N)cc1c2[Si](C)(C)C (racemic) [DB-38, 5-Ethyl-1,4,5,13-tetrahydro-5-hydroxy-10-amino-12-trimethylsilyl-3H,15H-oxepino[3′,4′:6,7]indolizino[1,2-b]quinoline-3,15-dione] | 0.02 | 84.8 ± 1.5 | 39.4 ± 1.2
4 | CCC1(O)CC(=O)OCc2c1cc1n(c2=O)Cc2c-1nc1ccc(O)cc1c2[Si](C)(C)C(C)(C)C (racemic) [DB-91, 5-Ethyl-1,4,5,13-tetrahydro-5-hydroxy-10-hydroxy-12-tert-butyldimethylsilyl-3H,15H-oxepino[3′,4′:6,7]indolizino[1,2-b]quinoline-3,15-dione] | 0.115 ± 0.005 | 88.5 ± 0.2 | 42.6 ± 2.6
